IC50 data for six compounds are collected here from US7417030B2, “Indazole peptidomimetics as thrombin receptor antagonists” (Ortho-McNeil Pharmaceutical, Inc., priority 1999, dated 2008).

The structures appear in SMILES notation.

In experiment [1] the test system is platelet aggregation stimulated by thrombin (gel-filtered platelets). Briefly: In vitro inhibition of thrombin-induced gel-filtered platelet aggregation assay. The following applies: thrombin-induced gel-filtered human platelet aggregation; agonist thrombin 50 μL of 1 unit/mL; read-out: IC50 (μM) Thr GFP Aggr. The format is cell-based. As to the method: In Vitro Inhibition Of Thrombin-Induced Gel-Filtered Platelet Aggregation Assay
The percentage of platelet aggregation is calculated as an increase in light transmission of compound-treated platelet concentrate vs. control-treated platelet concentrate. Human blood is obtained from drug free, normal donors in tubes containing 0.13M sodium citrate. Platelet rich plasma (PRP) is collected by centrifugation of whole blood at 200×g for 10 min at 25° C. The PRP (5 mL) is gel filtered through Sepharose 2B (bed volume 50 mL), and the platelet count is adjusted to 2×10^7 platelets per sample. The following constituents are added to a siliconized cuvette: concentrated platelet filtrate and Tyrode's buffer (0.14M NaCl, 0.0027M KCl, 0.012M NaHCO3, 0.76 mM Na2HPO4, 0.0055M glucose, 2 mg/mL BSA and 5.0 mM HEPES @ pH 7.4) in an amount equal to 350 μL, 50 μL of 20 mM calcium and 50 μL of the test compound. Aggregation is monitored in a BIODATA aggregometer for the 3 min following the addition of agonist (thrombin 50 μL of 1 unit/mL).

Experiment [2] addresses T1, Thrombin receptor (PAR-1) (Homo sapiens, UniProt P25116).
T1 construct: CHRF membranes (Jones, Biochim. Biophys. Acta 1992, 1136, 272) are thawed from −70° C; endogenous in cells; host or cells: CHRF cell membranes
T1 sequence (P25116 22-425): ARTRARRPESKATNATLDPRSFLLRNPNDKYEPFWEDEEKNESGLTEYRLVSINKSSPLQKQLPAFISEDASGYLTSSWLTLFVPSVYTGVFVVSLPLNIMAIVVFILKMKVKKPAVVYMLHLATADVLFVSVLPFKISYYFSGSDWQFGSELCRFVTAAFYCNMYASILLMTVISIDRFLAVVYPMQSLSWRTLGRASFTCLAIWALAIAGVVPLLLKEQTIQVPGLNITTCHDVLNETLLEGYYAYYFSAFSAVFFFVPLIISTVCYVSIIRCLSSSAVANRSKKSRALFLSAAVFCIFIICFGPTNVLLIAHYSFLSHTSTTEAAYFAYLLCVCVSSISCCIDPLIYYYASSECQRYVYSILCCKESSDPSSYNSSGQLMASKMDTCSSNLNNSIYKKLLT
Briefly: In vitro thrombin receptor binding assay. Particulars: CHRF membranes; tritiated 721-40 (Ser-pFPhe-Har-Leu-Har-Lys-Tyr-NH2) radioligand; read-out: IC50 (μM) Thr Recptr Bdg. As to the method: In Vitro Thrombin Receptor Binding Assay
CHRF membranes (Jones, Biochim. Biophys. Acta 1992, 1136, 272) are thawed from −70° C., centrifuged at maximum speed for 5 min, washed twice with binding buffer (50 mM HEPES containing 5 mM MgCl2 and 0.1% BSA), and re-suspended in binding buffer (25 μg/[…]). 100 μL of membranes are added to the 24-Wallac plates and delivered to the Tomtech apparatus. In a typical experiment, 6 μL of samples (from a 125 μg/mL intermediary plate, 20% DMSO) and 44 μL buffer are delivered to the plates (final conc. of compounds is 3.7 μg/mL, 0.6% DMSO). Similarly, 6 μL 20% DMSO and 44 μL buffer are delivered to both column 1 (NSB) and column 12 (TB). […] Ser-pFPhe-Har-Leu-Har-Lys-Tyr-NH2 (SEQ. ID. No. 2) (721-40; 500 μM in deionized water) is added to column 1. 50 μL tritiated 721-40 (specific activity 46 Ci/mmol) is added to all the wells. The plates are mixed well for 20 seconds, incubated for 30 min, and then harvested with 10 mM HEPES/138 mM NaCl using the Skatron harvester. The filters (GF/C Brandel FPXLR 296) are presoaked 3 h in 0.5% polyethylenimine in HEPES/0.1M N-acetylglucosamine) are set in Saran™ wrap and dried for 3 min in the microwave, and placed in sample bags (Wallac 1450-432). 4.5 mL scintillation fluid (Wallac, Betaplate Scint 1205-440) is added. The bags are sealed, placed in filter cassettes (Wallac 1450-104), and analyzed on the microbeta counter.

In general, IC50 refers to the concentration needed to halve the response being measured. For the compound `C[C@@H](NC(=O)[C@H](CCN)NC(=O)[C@H](Cc1ccc(F)c(F)c1)NC(=O)Nc1ccc2c(CN3CCCC3)nn(Cc3c(Cl)cccc3Cl)c2c1)c1ccccc1` [Compound 4], the IC50 in experiment [1] came to 0.32 µM; in experiment [2] it was 0.15 µM.

For the compound `NCC[C@H](NC(=O)[C@H](Cc1ccc(F)c(F)c1)NC(=O)Nc1ccc2c(CN3CCCC3)nn(Cc3c(Cl)cccc3Cl)c2c1)C(=O)NCc1ccccc1` [Compound 1, Benzenepropanamide, N-[(1S)-3-amino-1-[[(phenylmethyl)amino]carbonyl]propyl]-α-[[[[[1-(2,6-dichlorophenyl)methyl]-3-(1-pyrrolidinylmethyl)-1H-indazol-6-yl]amino]carbonyl]amino]-3,4-difluoro-,(αS)-], the IC50 in experiment [1] is 0.31 µM; in experiment [2] it was 0.04 µM.

For the compound `NCC[C@H](NC(=O)[C@H](Cc1ccc(F)c(F)c1)NC(=O)Nc1ccc2c(CN3CCCC3)nn(Cc3c(Cl)cccc3Cl)c2c1)C(=O)N[C@H](CO)c1ccccc1` [Compound 5], the IC50 in experiment [1] came to 0.66 µM; in experiment [2], 0.32 µM.

Turning to `NCC[C@H](NC(=O)[C@H](Cc1ccc(Cl)cc1)NC(=O)Nc1ccc2c(CN3CCCC3)nn(Cc3c(Cl)cccc3Cl)c2c1)C(=O)NCc1ccccc1` [Compound 2, Benzenepropanamide, N-[(1S)-3-amino-1-[[(phenylmethyl)amino]carbonyl]propyl]-α-[[[[[1-(2,6-dichlorophenyl)methyl]-3-(1-pyrrolidinylmethyl)-1H-indazol-6-yl]amino]carbonyl]amino]-4-chloro-, (αS)-], the IC50 in experiment [1] was determined as 0.26 µM; in experiment [2], 20 µM.

As to `NCCNC(=O)[C@H](Cc1cccs1)NC(=O)[C@H](Cc1ccc(Cl)cc1)NC(=O)Nc1ccc2c(CN3CCCC3)nn(Cc3c(Cl)cccc3Cl)c2c1` [Compound 6], the IC50 in experiment [1] amounted to 0.3 µM; in experiment [2], 5.8 µM.

For the compound `NCCNC(=O)[C@H](Cc1ccncc1)NC(=O)[C@H](Cc1ccc(F)c(F)c1)NC(=O)Nc1ccc2c(CN3CCCC3)nn(Cc3c(Cl)cccc3Cl)c2c1` [Compound 3, L-Alaninamide, 3,4-difluoro-N-[[[1-[(2,6-dichlorophenyl)methyl]-3-(1-pyrrolidinylmethyl)-1H-indazol-6-yl]amino]carbonyl]-L-phenylalanyl-N-(2-aminoethyl)-3-(4-pyridinyl)-], the IC50 stood at 0.5 µM in experiment [1] and 0.03 µM in experiment [2].
